Measurements reported in patent US7462639B2, “Aminopyrazole derivatives” (Hoffmann-La Roche Inc., priority 2005, dated 2008).

What follows are compounds tested against T1, Aurora A kinase (Homo sapiens, UniProt O14965) (assay: IC50 determination for inhibitors of Aurora A (ELISA-type kinase assay)). Details: GST-Histone H3 substrate, mutant Aurora A kinase, 30 μM ATP, 40 minutes, read-out: IC50 Aurora A kinase inhibition.
T1 sequence (O14965 1-403): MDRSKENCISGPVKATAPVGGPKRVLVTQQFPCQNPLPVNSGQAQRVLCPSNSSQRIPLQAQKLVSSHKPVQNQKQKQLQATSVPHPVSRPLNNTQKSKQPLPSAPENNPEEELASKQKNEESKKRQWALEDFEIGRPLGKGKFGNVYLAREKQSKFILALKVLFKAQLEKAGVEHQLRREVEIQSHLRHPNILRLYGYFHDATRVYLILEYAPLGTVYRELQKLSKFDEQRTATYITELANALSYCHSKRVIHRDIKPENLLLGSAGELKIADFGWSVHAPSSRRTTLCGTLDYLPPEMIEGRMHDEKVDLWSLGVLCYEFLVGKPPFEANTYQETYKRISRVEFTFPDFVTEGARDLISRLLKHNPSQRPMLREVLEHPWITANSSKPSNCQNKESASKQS
Format: biochemical
Protocol: Aurora A is a serine threonine kinase involved in spindle assembly and chromosome segregation. The assay is a typically ELISA-type assay where substrate (GST-Histone H3) is coupled to the assay-plate and is phosphorylated by the kinase. Phosphorylation is detected by a mouse anti-Phosphopeptid mAb and an HRP-labeled anti-mouse pAb. The assay is validated for IC50-determination.
Kinase activities were measured by Enzyme-Linked Immunosorbent Assay (ELISA): Maxisorp 384-well plates (Nunc) were coated with recombinant fusion protein comprising residues 1-15 of HistoneH3 fused to the N-terminus of Glutathione-S-Transferase. Plates were then blocked with a solution of 1 mg/mL I-block (a highly purified form of casein, Tropix cat. no. T2015) in phosphate-buffered saline. Kinase reactions were carried out in the wells of the ELISA plate by combining an appropriate amount of mutant Aurora A kinase with test compound and 30 μM ATP. The reaction buffer was 10× Kinase Buffer (Cell Signaling cat. no. 9802) supplemented with 1 μg/mL I-block. Reactions were stopped after 40 minutes by addition of 25 mM EDTA. After washing, substrate phosphorylation was detected by addition of anti-phospho-Histone H3 (Ser 10) 6G3 mAb (Cell Signaling cat. no. 9706) and sheep anti-mouse pAb-HRP (Amersham cat# NA931V), followed by colorimetric development with TMB (3,3′,5,5′-tetramethylbenzidine from Kirkegaard & Perry Laboratories). After readout of the adsorbance, IC50 values were calculated using a non-linear curve fit (XLfit software (ID Business Solution Ltd., Guilford, Surrey, UK)).

| SMILES | IC50 |
| --- | --- |
| CCN1C(=O)C(C)(C)c2cc3[nH]c(-c4n[nH]cc4NC(=O)N4CCC(OC)CC4)nc3cc21 [Example F-6] | 11 nM |
| CCN1C(=O)C(C)(C)c2cc3[nH]c(-c4n[nH]cc4NC(=O)OCc4ccccc4)nc3cc21 [Example E-5, [3-(5-Ethyl-7,7-dimethyl-6-oxo-1,5,6,7-tetrahydro-imidazo[4,5-f]indol-2-yl)-1H-pyrazol-4-yl]-carbamic acid benzyl ester] | 19 nM |
| CCN1C(=O)C(C)(C)c2cc3[nH]c(-c4n[nH]cc4NC(=O)c4cnccn4)nc3cc21 [Example C-11, Pyrazine-2-carboxylic acid[3-(5-ethyl-7,7-dimethyl-6-oxo-1,5,6,7-tetrahydro-imidazo[4,5-f]indol-2-yl)-1H-pyrazol-4-yl]-amide] | 3 nM |
| CCN1C(=O)C(C)(C)c2cc3[nH]c(-c4n[nH]cc4NC(=O)C(F)(F)F)nc3cc21 [Example A-5, N-[3-(5-Ethyl-7,7-dimethyl-6-oxo-1,5,6,7-tetrahydro-imidazo[4,5-f]indol-2-yl)-1H-pyrazol-4-yl]-2,2,2-trifluoro-acetamide] | 29 nM |
| CCN1C(=O)C(C)(C)c2cc3nc(-c4n[nH]cc4NS(C)(=O)=O)[nH]c3cc21 [Example H-2, N-[3-(5-Ethyl-7,7-dimethyl-6-oxo-3,5,6,7-tetrahydro-imidazo[4,5-f]indol-2-yl)-1H-pyrazol-4-yl]-methanesulfonamide] | 24 nM |
| CCN(CC)C(=O)Nc1c[nH]nc1-c1nc2cc3c(cc2[nH]1)C(C)(C)C(=O)N3CC [Example E-8, 1,1-Diethyl-3-[3-(5-ethyl-7,7-dimethyl-6-oxo-1,5,6,7-tetrahydro-imidazo[4,5-f]indol-2-yl)-1H-pyrazol-4-yl]-urea] | 1 nM |
| CCN1C(=O)C(C)(C)c2cc3[nH]c(-c4n[nH]cc4NC(=O)CC(C)C)nc3cc21 [Example B-20, N-[3-(5-Ethyl-7,7-dimethyl-6-oxo-1,5,6,7-tetrahydro-imidazo[4,5-f]indol-2-yl)-1H-pyrazol-4-yl]-3-methyl-butyramide] | 2 nM |
| CCN1C(=O)C(C)(C)c2cc3[nH]c(-c4n[nH]c(C)c4NCc4ccccc4)nc3cc21 [Example G-2, 2-(4-Benzylamino-5-methyl-1H-pyrazol-3-yl)-5-ethyl-7,7-dimethyl-5,7-dihydro-1H-imidazo[4,5-f]indol-6-one] | 32 nM |

What follows are compounds tested on HCT 116 cells (assay: Viability assay in HCT 116 cells (CellTiter-Glo)). Details: 120 h; HCT 116 human colon carcinoma cells, 5 days incubation, ATP luminescence readout.
Format: cell-based
Protocol: A viability assay was performed using the CellTiter-Glo® Luminescent Cell Viability Assay (see Promega Corporation's Technical Bulletin No. 288, pp. 1-11 [revised 2/04] which is hereby incorporated by reference in its entirety). This assay is a homogeneous method of determining the number of viable cells in culture based on quantitation of the ATP present, an indicator of metabolically active cells. The assay is designed for use with multiwell formats, making it ideal for automated high-throughput screening (HTS), cell proliferation and cytotoxicity assays. The homogeneous assay procedure involves adding a single reagent (containing luciferase, luciferan substrate, and buffer) directly to cells cultured in serum-supplemented medium. Cell washing, removal of medium and multiple pipetting steps are not required. The system detects as few as 15 cells/well in a 384-well format in 10 minutes after adding reagent and mixing.
The homogeneous “add-mix-measure” format results in cell lysis and generation of a luminescent signal proportional to the amount of ATP present. The amount of ATP is directly proportional to the number of cells present in culture. The above-referenced assay generates a “glow-type” luminescent signal, produced by the luciferase reaction, which has a half-life generally greater than five hours, depending on cell type and medium used. The extended half-life eliminates the need to use reagent injectors and provides flexibility for continuous or batch mode processing of multiple plates. The unique homogeneous format avoids errors that may be introduced by other ATP measurement methods that require multiple steps.
HCT 116 cells (human colon carcinoma, ATCC-No. CCl-247) were cultivated in RPMI 1640 medium with GlutaMAX™ I (cell culture media that contains L-Alanyl-L-Glutamine [a stabilized a form/source of L-Glutamine] from Invitrogen, Cat-No. 61870-010), 2.5% Fetal Calf Serum (FCS, Sigma Cat-No. F4135 (FBS)); 100 Units/ml penicillin/100 μg/ml streptomycin (=Pen/Strep from Invitrogen Cat. No. 15140). For the assay the cells were seeded in 384 well plates, 1000 cells per well, in the same medium. The next day the test compounds were added in various concentrations ranging from 30 μM to 0.0015 μM (10 concentrations, 1:3 diluted). After 5 days the viability assay was done according to the instructions of the manufacturer. In brief: the cell-plate was equilibrated to room temperature for approximately 30 minutes and then reagent (containing luciferase, luciferan substrate, and buffer) was added. The contents were carefully mixed for 15 minutes to induce cell lysis. After 45 minutes the luminescent signal was measured in Victor 2, (scanning multiwell spectrophotometer, Wallac).
Medium: RPMI 1640 with cell culture media containing L-Alanyl-L-Glutamine [GlutaMAX™ I (Invitrogen, Cat-No. 61870)], 5% FCS (Sigma Cat.-No. F4135), Pen/Strep (Invitrogen, Cat No. 15140).
HCT116 (ATCC-No. CCl-247): 1000 cells in 60 μl per well of 384 well plate (Greiner 781098, μClear-plate white)
After seeding incubate plates 24 h at 37° C., 5% CO2
2nd. Day: Induction (Treatment with Compounds, 10 Concentrations):
In order to achieve a final concentration of 30 μM as highest concentration […] of 10 mM compound stock solution were added directly to […] media. Then step d) of the dilution procedure described below, was followed. […]

| SMILES | IC50 |
| --- | --- |
| CCN1C(=O)C(C)(C)c2cc3[nH]c(-c4n[nH]cc4NC(=O)COC)nc3cc21 [Example B-22, N-[3-(5-Ethyl-7,7-dimethyl-6-oxo-1,5,6,7-tetrahydro-imidazo[4,5-f]indol-2-yl)-1H-pyrazol-4-yl]-2-methoxy-acetamide] | 99 nM |
| CCN1C(=O)C(C)(C)c2cc3[nH]c(-c4n[nH]cc4NC(=O)OC)nc3cc21 [Example E-6, [3-(5-Ethyl-7,7-dimethyl-6-oxo-1,5,6,7-tetrahydro-imidazo[4,5-f]indol-2-yl)-1H-pyrazol-4-yl]-carbamic acid methyl ester] | 378 nM |
| CCN1C(=O)C(C)(C)c2cc3[nH]c(-c4n[nH]cc4NC(=O)c4cccnc4)nc3cc21 [Example B-3, N-[3-(5-Ethyl-7,7-dimethyl-6-oxo-1,5,6,7-tetrahydro-imidazo[4,5-f]indol-2-yl)-1H-pyrazol-4-yl]-nicotinamide] | 57 nM |
| CCN(CCN(C)C)C(=O)Nc1c[nH]nc1-c1nc2cc3c(cc2[nH]1)C(C)(C)C(=O)N3CC [Example F-4, 1-(2-Dimethylamino-ethyl)-1-ethyl-3-[3-(5-ethyl-7,7-dimethyl-6-oxo-1,5,6,7-tetrahydro-imidazo[4,5-f]indol-2-yl)-1H-pyrazol-4-yl]-urea] | 28 nM |
| CCN1C(=O)C(C)(C)c2cc3[nH]c(-c4n[nH]cc4NC(=O)N(C)C)nc3cc21 [Example E-10, 3-[3-(5-Ethyl-7,7-dimethyl-6-oxo-1,5,6,7-tetrahydro-imidazo[4,5-f]indol-2-yl)-1H-pyrazol-4-yl]-1,1-dimethyl-urea] | 61 nM |
| CCN1C(=O)C(C)(C)c2cc3[nH]c(-c4n[nH]cc4NC(C)=O)nc3cc21 [Example A-1, N-[3-(5-Ethyl-7,7-dimethyl-6-oxo-1,5,6,7-tetrahydro-imidazo[4,5-f]indol-2-yl)-1H-pyrazol-4-yl]-acetamide] | 311 nM |

Same assay, conditions: HCT 116 human colon carcinoma cells, 5 days incubation, ATP luminescence readout

| SMILES | IC50 |
| --- | --- |
| CCN1C(=O)C(C)(C)c2cc3[nH]c(-c4n[nH]cc4NC(=O)c4ccc5c(c4)OCCO5)nc3cc21 [Example C-13, 2,3-Dihydro-benzo[1,4]dioxine-6-carboxylic acid[3-(5-ethyl-7,7-dimethyl-6-oxo-1,5,6,7-tetrahydro-imidazo[4,5-f]indol-2-yl)-1H-pyrazol-4-yl]-amide] | 63 nM |
